# Several values for one entry are separate records, joined by “and”; a condition that tells them apart may be missing. Equal entries are not always repeated.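 All cell lines were grown in 96-well plates and treated with compound for 48 hours. At the GI50, growth is halved. TGI denotes the concentration required for complete inhibition of growth.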
# What was measured:
# Assay in all cases: NCI-60 cell line screen, 48 h
# SF-539 CNS = tested on: SF-539 CNS
# MCF7 breast = tested on: MCF7 breast
# NCI-H226 lung = tested on: NCI-H226 lung
# TK-10 renal = tested on: TK-10 renal
# SK-OV-3 ovarian = tested on: SK-OV-3 ovarian
# BT-549 breast = tested on: BT-549 breast
# UACC-62 melanoma = tested on: UACC-62 melanoma
# OVCAR-5 ovarian = tested on: OVCAR-5 ovarian
# A549 NSCLC = tested on: A549 NSCLC
# SK-MEL-5 melanoma = tested on: SK-MEL-5 melanoma
Compound,TGI (SF-539 CNS),TGI (MCF7 breast) [µM],TGI (NCI-H226 lung),TGI (TK-10 renal),TGI (SK-OV-3 ovarian) [µM],TGI (BT-549 breast) [µM],TGI (UACC-62 melanoma),TGI (OVCAR-5 ovarian),TGI (A549 NSCLC) [µM],TGI (SK-MEL-5 melanoma),GI50 (TK-10 renal) [µM],GI50 (SK-OV-3 ovarian) [µM],GI50 (UACC-62 melanoma) [µM],GI50 (OVCAR-5 ovarian) [µM],GI50 (SK-MEL-5 melanoma) [µM]
COc1cc2c(cc1OC)-c1[nH]c3ccc([N+](=O)[O-])cc3c1CC(=O)N2,0.716 µM,34.9,1.66 µM,8.92 µM,> 29.8,> 100,> 100 µM,> 83.2 µM,> 100,5.87 µM,–,–,–,–,–
CC(=O)OC12OC(C)(C3C(=O)N(c4ccccc4)C(=O)C31)N(c1ccccc1)C2=O (configuration not stated),> 100 µM,> 100,> 100 µM,> 100 µM,> 100,> 100,> 100 µM,> 100 µM,> 100,> 100 µM,–,–,–,–,–
COc1cccc(/C=N/NC(=O)CN(C)C)c1O,> 100 µM,> 100,> 100 µM,> 100 µM,> 100,> 100,> 100 µM,> 100 µM,> 100,> 100 µM,–,–,–,–,–
COC(=O)CN(CC1O[C@@H]2OC(C)(C)O[C@@H]2C1NC(C)=O)C(=O)OCc1ccccc1 (some centres not stated),> 100 µM,> 100,> 100 µM,> 100 µM,> 100,> 100,> 100 µM,> 100 µM,> 100,> 100 µM,–,–,–,–,–
CC(=O)CC12NC(=O)N(C)N=C1N(C)C(=O)N(C)C2=O (configuration not stated),72.9 µM,> 100,> 100 µM,> 100 µM,> 100,> 100,73.3 µM,> 100 µM,> 100,–,–,–,–,–,–
Cc1sc2nc3n(c(=O)c2c1C)N=C(c1ccccc1)CS3,> 100 µM,> 100,> 100 µM,> 100 µM,> 100,> 100,> 100 µM,> 100 µM,> 100,> 100 µM,–,–,–,–,–
COC(=O)[C@@H](NC(=O)c1ccc(CNC(=O)/C(C)=C/c2ccccc2)cc1)C(C)C,> 100 µM,> 100,> 100 µM,> 100 µM,> 100,> 100,> 100 µM,> 100 µM,> 100,> 100 µM,–,–,–,–,–
NC(CS)C(=O)NCCNc1ccc(NCCNC(=O)C(N)CS)c2c1C(=O)c1c(O)ccc(O)c1C2=O (configuration not stated),0.728 µM and 0.193 µM,1.21,0.0616 µM and 0.0476 µM,3.58 µM and 0.49 µM,–,1.42,0.516 µM and 0.249 µM,1.58 µM and 0.718 µM,0.191,1.33 µM and 0.373 µM,0.08,0.0165,0.0196,0.0756,0.0231
COc1cc(/C=C/C2=NN(c3cccc(S(=O)(=O)O)c3)C3(C2)SCC(=O)N3c2nc3ccccc3s2)cc(OC)c1OC (configuration not stated),> 100 µM,> 100,> 100 µM,93.3 µM,–,> 100,> 100 µM,> 100 µM,> 100,> 100 µM,–,–,–,–,–
CCOC(=O)C(NC(=O)c1ccccc1)(Nc1ccc(S(=O)(=O)Nc2ccc(OC)nn2)cc1)C(F)(F)F (configuration not stated),> 100 µM,> 100,> 100 µM,> 100 µM,> 100,> 100,> 100 µM,> 100 µM,> 100,> 100 µM,–,–,–,–,–
O=C1C(c2c(O)[nH]c3ccc(I)cc23)=Nc2ccccc21,23.3 µM,15.7,6.94 µM,17.9 µM,22.8,29.2,21.3 µM,57.1 µM,20.3,10.8 µM,–,–,–,–,–
Clc1ccc(Nc2nnc(CNc3ccc(-c4nnc(Nc5ccc(Cl)cc5)o4)cc3)o2)cc1,36.3 µM,34.9,47.3 µM,28.9 µM,49.7,38.6,27.8 µM,40.7 µM,30.2,33.4 µM,–,–,–,–,–
CN(C)CCCN=c1c2ccccc2n(C)c2[nH]c(=O)n(C)c(=O)c12,22.4 µM,26.6,18.4 µM,25.7 µM,50.3,36.8,24.7 µM,43.7 µM,> 100,18.4 µM,–,–,–,–,–
CN(C)C=Nc1c2c(nc3ccccc13)CCCC2,> 100 µM,> 100,> 100 µM,> 100 µM,> 100,> 100,> 100 µM,> 100 µM,> 100,> 100 µM,–,–,–,–,–
COC(=O)C1=C(C)NC2=C(C(=O)c3ccccc32)C1c1cn[nH]c1-c1ccccc1 (configuration not stated),> 100 µM,> 100,> 100 µM,–,> 100,> 100,> 100 µM,> 100 µM,> 100,> 100 µM,–,–,–,–,–
CC(=O)N1CCN(CCCCN2c3ccccc3Sc3cc(N=[N+]=[N-])ccc32)CC1,31.8 µM,28.9,35.5 µM,31.3 µM,–,31.6,9.21 µM,26.6 µM,30,–,–,–,–,–,–
N#Cc1c(O)c(C=O)c(=O)n2c1[nH]c1ccccc12,> 100 µM,> 100,> 100 µM,> 100 µM,> 100,> 100,> 100 µM,> 100 µM,> 100,> 100 µM,–,–,–,–,–
CCOC(=O)[C@@]12NN=N[C@@H]1[C@H]1CO[C@H](c3ccccc3)N1C2=O,25.3 µM,25.3,–,30.5 µM,33.6,25.9,21.2 µM,31.8 µM,> 100,24.5 µM,–,–,–,–,–
COc1cc(C2c3cc4c(cc3OC(NNc3ccccc3)C2C)OCO4)cc(OC)c1O (configuration not stated),2.98 µM,13.3,14.6 µM,23.6 µM,22.7,28,6.03 µM,18 µM,13.3,3.68 µM,–,–,–,–,–
CC1=C(C(=O)NCCCN(CCO)CCO)CC(C(=O)NCCCN(CCO)CCO)=C(C)N1,> 100 µM,> 100,> 100 µM,> 100 µM,> 100,> 100,> 100 µM,> 100 µM,> 100,95.7 µM,–,–,–,–,–
COc1cc(C(=O)N(C(=O)N2CCCCC2)c2ccccc2)cc(OC)c1OC,> 100 µM,> 100,> 100 µM,–,> 100,> 100,> 100 µM,> 100 µM,> 100,> 100 µM,–,–,–,–,–
